pIC50: −log10 of the molar value. Read-outs that look alike come from different tables or passages of the source. Some results are limits rather than exact numbers.

Assay [1] deals with MYC transcriptional activity (c-Myc E-box-luciferase reporter, MycCap cells). Description: MYC E-box luciferase reporter assay. Particulars: Mus musculus, Myc-CaP, read-out: Ebox reporter: IC50. The format is cell-based. How it is done: To test the compounds, we evaluated the in silico hits in a MYC E-Box luciferase reporter assay to measure the effects of these compounds (referred to as Min-1 to Min-32) on MYC transcriptional activity. […] (See FIG. 2).
MycCap cells stably expressing luciferase with CMV promoter (MycCap-luc) or c-Myc E-box-luciferase reporter (MycCap Ebox-luc) were plated at 10000 cells per well in 96 well white-wall plate. Serial dilutions of 361 were treated next day. At 4 hours of treatment, luminescence signal was determined immediately after adding 150 μg/ml of Luciferin to the well. (See FIG. 12).

The subject of a further assay is CMV reporter. Description: CMV reporter assay (control reporter beside the Ebox reporter). The format is cell-based.

In the case of `Cn1nc(C(F)(F)F)cc1-c1ccc(CNc2ccc(Cl)cc2)c(-c2ccc(Cl)c(C(F)(F)F)c2)c1O` [NUCC-0202414], the negative logarithm of the IC50 (pIC50) was 5.00 to 5.30 in assay [1] (class symbols) and less than 4.30 with CMV reporter.
The like results for `Cn1nc(C(F)(F)F)cc1-c1ccc(COc2ccc(Cl)cc2)c(-c2ccc(Cl)c(C(F)(F)F)c2)c1O` [NUCC-0202416] were, in that order, more than 5.30 and less than 4.30.
For `Cn1nc(-c2ccc(CNc3ccc(Cl)cc3)c(-c3ccc(Cl)c(C(F)(F)F)c3)c2O)cc1C(F)(F)F` [NUCC-0202417], the negative-log IC50 (pIC50) (in assay [1] (given as numeric bound); in the assay with CMV reporter) was less than 4.30 each time.
For `CC(Oc1ccc(-c2cc(C(F)(F)F)nn2C)c(O)c1-c1ccc(Cl)c(C(F)(F)F)c1)c1ccc(Cl)cc1` (centres unmarked) [NUCC-0202418], the results for the pIC50 (in assay [1] (class symbols); with CMV reporter) were 5.00 to 5.30 and less than 4.30, respectively.
As to `Cn1nc(-c2ccc(COc3ccc(Cl)cc3)c(-c3ccc(Cl)c(C(F)(F)F)c3)c2O)cc1C(F)(F)F` [NUCC-0202421], the pIC50 (in assay [1] (given as numeric bound); with CMV reporter) was less than 4.30 each time.
`Cn1nc(-c2ccc(OCc3ccc(Cl)cc3)c(Oc3ccc(F)cn3)c2O)cc1C(F)(F)F` [NUCC-0202422]: the pIC50 (in assay [1] (given as numeric bound); in the assay on CMV reporter) was less than 4.30 throughout.
In the case of `Cn1nc(C(F)(F)F)cc1-c1ccc(N(Cc2ccc(Cl)cc2)C(=O)c2ccc(C(F)(F)F)c(Cl)c2)cc1O` [NUCC-0202423], the values for the negative logarithm of the IC50 (pIC50) (in assay [1] (class symbols); in the assay on CMV reporter) were more than 5.30 and less than 4.30, respectively.
On to `Cn1nc(-c2ccc(N(Cc3ccc(Cl)cc3)C(=O)c3ccc(C(F)(F)F)c(Cl)c3)cc2O)cc1C(F)(F)F` [NUCC-0202424], for which the pIC50 (in assay [1] (given as numeric bound); in the assay with CMV reporter) was less than 4.30 in each case.
Regarding `COCCOc1ccc(-c2cc(C(F)(F)F)nn2C)c(O)c1-c1ccc(Cl)c(C(F)(F)F)c1` [NUCC-0202425], the pIC50 in assay [1] (class symbols) is 4.30 to 5.00; in the assay with CMV reporter it was less than 4.30.
As for `COCCOc1ccc(-c2cc(C(F)(F)F)n(C)n2)c(O)c1-c1ccc(Cl)c(C(F)(F)F)c1` [NUCC-0202426], the pIC50 (in assay [1] (given as numeric bound); in the assay on CMV reporter) was less than 4.30 in each case.
As for `Cn1nc(C(F)(F)F)cc1-c1ccc(OC2CCOCC2)c(-c2ccc(Cl)c(C(F)(F)F)c2)c1O` [NUCC-0202427], the pIC50 was 4.30 to 5.00 in assay [1] (class symbols) and less than 4.30 with CMV reporter.
Take `Cn1nc(-c2ccc(OC3CCOCC3)c(-c3ccc(Cl)c(C(F)(F)F)c3)c2O)cc1C(F)(F)F` [NUCC-0202428]: the negative-log IC50 (pIC50) (in assay [1] (given as numeric bound); in the assay with CMV reporter) was less than 4.30 each time.
On to `COc1ccc(-c2cc(C(F)(F)F)nn2C)c(O)c1-c1ccc(Cl)c(C(F)(F)F)c1` [NUCC-0202429], for which the pIC50 in assay [1] (class symbols) was more than 5.30; in the assay on CMV reporter it was less than 4.30.
On to `COc1ccc(-c2cc(C(F)(F)F)n(C)n2)c(O)c1-c1ccc(Cl)c(C(F)(F)F)c1` [NUCC-0202430], for which the pIC50 (in assay [1] (given as numeric bound); in the assay with CMV reporter) was less than 4.30 in each case.
Turning to `Cn1nc(C(F)(F)F)cc1-c1ccc(OC2CCNCC2)c(-c2ccc(Cl)c(C(F)(F)F)c2)c1O` [NUCC-0202431], the pIC50 in assay [1] (class symbols) is 4.30 to 5.00; in the assay with CMV reporter, 4.41.
For the molecule `Cn1nc(-c2ccc(OC3CCNCC3)c(-c3ccc(Cl)c(C(F)(F)F)c3)c2O)cc1C(F)(F)F` [NUCC-0202432], the pIC50 was 4.30 to 5.00 in assay [1] (class symbols) and 4.55 in the assay with CMV reporter.
The like results for `Oc1c(-c2cc(C(F)(F)F)n[nH]2)ccc(NCc2ccc(Cl)cc2)c1-c1ccc(Cl)c(C(F)(F)F)c1` [NUCC-0202433] were, in that order, 5.00 to 5.30 and less than 4.30.
The like results for `O=C(c1ccc(C(F)(F)F)c(Cl)c1)N(Cc1ccc(Cl)cc1)c1ccc(-c2cc(C(F)(F)F)n[nH]2)c(O)c1` [NUCC-0202434] were, in that order, more than 5.30 and 4.40.
The like results for `Oc1c(-c2cc(C(F)(F)F)n[nH]2)ccc(OCc2ccc(Cl)cc2)c1Oc1ccc(F)cn1` [NUCC-0202435] were, in that order, 4.30 to 5.00 and less than 4.30.
For the molecule `O=c1cc(C(F)(F)F)oc2cc(NCc3ccc(Cl)cc3)ccc12` [NUCC-0202436], the negative logarithm of the IC50 (pIC50) in assay [1] (class symbols) was 4.30 to 5.00; in the assay on CMV reporter it was less than 4.30.
On to `CC(Oc1ccc(-c2cc(C(F)(F)F)n(C)n2)c(O)c1-c1ccc(Cl)c(C(F)(F)F)c1)c1ccc(Cl)cc1` (centres unmarked) [NUCC-0202437], for which the negative-log IC50 (pIC50) (in assay [1] (given as numeric bound); in the assay on CMV reporter) was less than 4.30 in each case.
With `NC(=O)c1cc(-c2ccc(OCc3ccc(Cl)cc3)c(-c3ccc(Cl)c(C(F)(F)F)c3)c2O)[nH]n1` [NUCC-0202521], the pIC50 is 4.30 to 5.00 in assay [1] (class symbols) and 4.47 with CMV reporter.
Take `CNC(=O)c1cc(-c2ccc(OCc3ccc(Cl)cc3)c(-c3ccc(Cl)c(C(F)(F)F)c3)c2O)[nH]n1` [NUCC-0202522]: the pIC50 is 4.30 to 5.00 in assay [1] (class symbols) and 4.37 in the assay on CMV reporter.
For the molecule `CN(C)C(=O)c1cc(-c2ccc(OCc3ccc(Cl)cc3)c(-c3ccc(Cl)c(C(F)(F)F)c3)c2O)[nH]n1` [NUCC-0202523], the pIC50 (in assay [1] (given as numeric bound); in the assay with CMV reporter) was less than 4.30 in each case.
For `Cn1nc(C(=O)O)cc1-c1ccc(OCc2ccc(Cl)cc2)c(-c2ccc(Cl)c(C(F)(F)F)c2)c1O` [NUCC-0202524], the pIC50 in assay [1] (class symbols) was 4.30 to 5.00; in the assay on CMV reporter it was less than 4.30.
The like results for `Cn1nc(-c2ccc(OCc3ccc(Cl)cc3)c(-c3ccc(Cl)c(C(F)(F)F)c3)c2O)cc1C(=O)O` [NUCC-0202525] were, in that order, 4.30 to 5.00 and less than 4.30.
The like results for `Cn1nc(C(N)=O)cc1-c1ccc(OCc2ccc(Cl)cc2)c(-c2ccc(Cl)c(C(F)(F)F)c2)c1O` [NUCC-0202526] were, in that order, 4.30 to 5.00 and less than 4.30.
For the molecule `CN(C)C(=O)c1cc(-c2ccc(OCc3ccc(Cl)cc3)c(-c3ccc(Cl)c(C(F)(F)F)c3)c2O)n(C)n1` [NUCC-0202527], the results for the pIC50 (in assay [1] (class symbols); in the assay with CMV reporter) were 4.30 to 5.00 and less than 4.30, respectively.
On to `C=C(C)c1cc(-c2ccc(OCc3ccc(Cl)cc3)c(-c3ccc(C)c(C)c3)c2C)nn1C` [NUCC-0202528], for which the negative logarithm of the IC50 (pIC50) is 4.30 to 5.00 in assay [1] (class symbols) and 4.55 with CMV reporter.
Regarding `CNC(=O)c1cc(-c2ccc(OCc3ccc(Cl)cc3)c(-c3ccc(Cl)c(C(F)(F)F)c3)c2O)nn1C` [NUCC-0202529], the pIC50 in assay [1] (class symbols) is 4.30 to 5.00; in the assay on CMV reporter, less than 4.30.
`CCOC(=O)c1cc(-c2ccc(OCc3ccc(Cl)cc3)c(-c3ccc(Cl)c(C(F)(F)F)c3)c2O)[nH]n1` [NUCC-0202530]: the negative logarithm of the IC50 (pIC50) was 4.30 to 5.00 in assay [1] (class symbols) and less than 4.30 with CMV reporter.
Take `CN(C)C(=O)c1cc(-c2ccc(OCc3ccc(Cl)cc3)c(-c3ccc(Cl)c(C(F)(F)F)c3)c2O)nn1C` [NUCC-0202531]: the pIC50 (in assay [1] (given as numeric bound); in the assay with CMV reporter) was less than 4.30 in each case.
`Cc1cc(-c2ccc(OCc3ccc(Cl)cc3)c(-c3ccc(Cl)c(C(F)(F)F)c3)c2O)[nH]n1` [NUCC-0202532]: the results for the pIC50 (in assay [1] (class symbols); with CMV reporter) were 4.30 to 5.00 and less than 4.30, respectively.
Consider `Cc1cc(-c2ccc(OCc3ccc(Cl)cc3)c(-c3ccc(Cl)c(C(F)(F)F)c3)c2O)n(C)n1` [NUCC-0202533], for which the negative-log IC50 (pIC50) in assay [1] (class symbols) was 4.30 to 5.00; in the assay with CMV reporter, less than 4.30.
As for `Cc1cc(-c2ccc(OCc3ccc(Cl)cc3)c(-c3ccc(Cl)c(C(F)(F)F)c3)c2O)nn1C` [NUCC-0202534], the negative logarithm of the IC50 (pIC50) (in assay [1] (given as numeric bound); in the assay on CMV reporter) was less than 4.30 in each case.
As to `Oc1cc(-c2ccc(OCc3ccc(Cl)cc3)c(-c3ccc(Cl)c(C(F)(F)F)c3)c2O)[nH]n1` [NUCC-0202535], the negative logarithm of the IC50 (pIC50) is 4.30 to 5.00 in assay [1] (class symbols) and less than 4.30 in the assay with CMV reporter.
The like results for `Oc1cc(OCc2ccc(Cl)cc2)ccc1-c1[nH]nc(C(F)(F)F)c1Oc1ccc(Cl)c(F)c1` [NUCC-0202536] were, in that order, 5.00 to 5.30 and 4.36.

The values are drawn from patent US20200392116A1, “SUBSTITUTED HETEROCYCLES AS c-MYC TARGETING AGENTS” (NORTHWESTERN UNIVERSITY, priority 2019, published 2020).
